Laboratory results reported in patent US10508120B2, “TYK2 inhibitors and uses thereof” (Nimbus Lakshmi, Inc., priority 2017, dated 2019).

Assays:
[1] = biological target: Tyk2 kinase domain (DH1) (Homo sapiens (Human), UniProt P29597); test: Tyk2 Radioactive Kinase Assay; assay type: biochemical; conditions: compound at 10 μM, ATP 10 μM; for inhibition at 10 µM: read-out: Tyk2 JH1% Inhibition @ 10 μM
Outline: (§1)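 Compounds were tested at a single concentration of 10 μM in a radiometric kinase format against each isolated kinase domain. Activity is reported as percent inhibition at that concentration.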

[2] = biological target: human TYK2 (JH2domain-pseudokinase) (Homo sapiens (Human), UniProt P29597); test: TYK2 JH2 Domain Binding Assay (KINOMEscan)
Chain of human TYK2 (JH2domain-pseudokinase) (P29597 556-888): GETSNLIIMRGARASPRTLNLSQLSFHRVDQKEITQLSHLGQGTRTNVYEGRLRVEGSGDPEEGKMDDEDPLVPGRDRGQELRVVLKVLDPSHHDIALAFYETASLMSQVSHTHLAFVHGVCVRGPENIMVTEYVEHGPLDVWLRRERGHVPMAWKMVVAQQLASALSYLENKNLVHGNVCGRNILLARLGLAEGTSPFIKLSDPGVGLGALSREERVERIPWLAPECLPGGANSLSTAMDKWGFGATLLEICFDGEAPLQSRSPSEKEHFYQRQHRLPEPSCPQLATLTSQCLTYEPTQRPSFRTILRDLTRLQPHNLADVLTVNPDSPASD
Outline: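 Competition binding of an NFkB-DBD fusion of human TYK2 JH2 (G556–D888), expressed in HEK293 and used as crude extract at <0.1 nM, against immobilized ligand beads; 1 h at room temperature in PBS/Tween/DTT/BSA buffer, 0.9% DMSO.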

[3] = biological target: JAK2 kinase domain (JH1) (Homo sapiens (Human), UniProt O60674); test: JAK2 Radioactive Kinase Assay; assay type: biochemical; conditions: compound at 10 μM, ATP 10 μM; for inhibition at 10 µM: read-out: JAK2 JH1% Inhibition @ 10 μM
Chain of JAK2 kinase domain (JH1) (O60674 849-1124): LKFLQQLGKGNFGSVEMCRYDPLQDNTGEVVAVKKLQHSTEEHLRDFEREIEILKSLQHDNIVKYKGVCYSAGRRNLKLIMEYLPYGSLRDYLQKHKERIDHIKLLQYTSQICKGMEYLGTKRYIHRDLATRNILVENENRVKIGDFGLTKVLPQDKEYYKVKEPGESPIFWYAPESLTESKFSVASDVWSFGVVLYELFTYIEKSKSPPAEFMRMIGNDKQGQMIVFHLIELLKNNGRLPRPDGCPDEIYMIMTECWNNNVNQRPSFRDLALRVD
Outline: as §1

Chain of Tyk2 kinase domain (DH1) (P29597 897-1176): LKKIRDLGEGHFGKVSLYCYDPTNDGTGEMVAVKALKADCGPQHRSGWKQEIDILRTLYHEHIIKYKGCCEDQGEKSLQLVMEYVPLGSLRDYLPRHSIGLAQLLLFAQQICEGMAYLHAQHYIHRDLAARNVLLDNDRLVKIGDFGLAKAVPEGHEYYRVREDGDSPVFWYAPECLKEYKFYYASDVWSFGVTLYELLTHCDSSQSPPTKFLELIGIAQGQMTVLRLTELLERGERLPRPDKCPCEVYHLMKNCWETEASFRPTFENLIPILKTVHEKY

CNc1cc(Nc2cccn([C@H]3CC[C@](C)(OC)CC3)c2=O)nc2c(C(=O)N[C@H]3CC[C@H]3O)cnn12 [I-723, N-((1R,2S)-2-hydroxycyclobutyl)-5-((1-((1R,4R)-4-methoxy-4-methylcyclohexyl)-2-oxo-1,2-dihydropyridin-3-yl)amino)-7-(methylamino)pyrazolo[1,5-a]pyrimidine-3-carboxamide]
inhibition at 10 µM [1]: < 50% | Kd [2]: 0.2 to 1 nM | inhibition at 10 µM [3]: < 50%

CNc1cc(Nc2cccn([C@@H]3CCCOC3)c2=O)nc2c(C(=O)N[C@@H]3CC[C@H]3O)cnn12 [I-727]
inhibition at 10 µM [1]: < 50% | Kd [2]: < 0.2 nM | inhibition at 10 µM [3]: < 50%

CNc1cc(Nc2cccn([C@H]3CCCOC3)c2=O)nc2c(C(=O)N[C@H]3CC[C@H](O)C3)cnn12 [I-728]
Tyk2 JH1% Inhibition @ 10 μM [1]: A (percent inhibition at 10 μM lower than 50) | Kd [2]: < 0.2 nM | JAK2 JH1% Inhibition @ 10 μM [3]: A (percent inhibition at 10 μM lower than 50)

CNc1cc(Nc2cccn([C@H]3CCCOC3)c2=O)nc2c(C(=O)N[C@@H]3CC[C@@H](O)C3)cnn12 [I-729]
inhibition at 10 µM [1]: < 50% | Kd [2]: < 0.2 nM | inhibition at 10 µM [3]: < 50%

CNc1cc(Nc2cccn(-c3ccccn3)c2=O)nc2c(C(=O)NC[C@H](C)CO)cnn12 [I-730]
inhibition at 10 µM [1]: < 50% | Kd [2]: < 0.2 nM | inhibition at 10 µM [3]: < 50%

CNc1cc(Nc2cccn(-c3ccccn3)c2=O)nc2c(C(=O)NC[C@@H](C)CO)cnn12 [I-731]
inhibition at 10 µM [1]: < 50% | Kd [2]: 0.2 to 1 nM | inhibition at 10 µM [3]: < 50%

CNc1cc(Nc2cccn([C@@H]3CCCOC3)c2=O)nc2c(C(=O)N[C@H]3CCC[C@H](O)C3)cnn12 [I-734]
Tyk2 JH1% Inhibition @ 10 μM [1]: A (percent inhibition at 10 μM lower than 50) | Kd [2]: 0.2 to 1 nM | JAK2 JH1% Inhibition @ 10 μM [3]: A (percent inhibition at 10 μM lower than 50)

CNc1cc(Nc2cccn([C@@H]3CCCOC3)c2=O)nc2c(C(=O)N[C@@H]3CCC[C@@H](O)C3)cnn12 [I-735]
inhibition at 10 µM [1]: < 50% | Kd [2]: < 0.2 nM | inhibition at 10 µM [3]: < 50%

CNc1cc(Nc2cccn(-c3nc(C)co3)c2=O)nc2c(C(=O)NC[C@H](C)CO)cnn12 [I-736]
inhibition at 10 µM [1]: < 50% | Kd [2]: < 0.2 nM | inhibition at 10 µM [3]: < 50%

CNc1cc(Nc2cccn(-c3nc(C)co3)c2=O)nc2c(C(=O)NC[C@@H](C)CO)cnn12 [I-737]
inhibition at 10 µM [1]: < 50% | Kd [2]: < 0.2 nM | inhibition at 10 µM [3]: < 50%

CNc1cc(Nc2cccn([C@@H]3CCCOC3)c2=O)nc2c(C(=O)N[C@H]3CC[C@H](O)C3)cnn12 [I-738]
Tyk2 JH1% Inhibition @ 10 μM [1]: A (percent inhibition at 10 μM lower than 50) | Kd [2]: 0.2 to 1 nM | JAK2 JH1% Inhibition @ 10 μM [3]: A (percent inhibition at 10 μM lower than 50)

CNc1cc(Nc2cccn([C@@H]3CCCOC3)c2=O)nc2c(C(=O)N[C@@H]3CC[C@@H](O)C3)cnn12 [I-739]
inhibition at 10 µM [1]: < 50% | Kd [2]: 0.2 to 1 nM | inhibition at 10 µM [3]: < 50%

CNc1cc(Nc2cc(Cl)cn(C3CCCOC3)c2=O)nc2c(C(=O)N[C@H]3[C@@H]4COC[C@@H]43)cnn12 (stereo partly drawn) [I-741, N-((1R,5S,6r)-3-oxabicyclo[3.1.0]hexan-6-yl)-5-((5-chloro-2-oxo-1-(tetrahydro-2H-pyran-3-yl)-1,2-dihydropyridin-3-yl)amino)-7-(methylamino)pyrazolo[1,5-a]pyrimidine-3-carboxamide]
inhibition at 10 µM [1]: < 50% | Kd [2]: < 0.2 nM | inhibition at 10 µM [3]: < 50%

CNc1cc(Nc2cccn([C@@H]3CC[C@H]3O)c2=O)nc2c(C(=O)NC3CC3)cnn12 [I-742]
inhibition at 10 µM [1]: < 50% | Kd [2]: < 0.2 nM | inhibition at 10 µM [3]: < 50%

CNc1cc(Nc2cccn(-c3ccccn3)c2=O)nc2c(C(=O)N[C@@H]3CC[C@@H]3O)cnn12 [I-743]
inhibition at 10 µM [1]: < 50% | Kd [2]: < 0.2 nM | inhibition at 10 µM [3]: < 50%

CNc1cc(Nc2cccn([C@H]3CCCOC3)c2=O)nc2c(C(=O)N[C@H]3CC[C@H]3O)cnn12 [I-745]
inhibition at 10 µM [1]: < 50% | Kd [2]: < 0.2 nM | inhibition at 10 µM [3]: < 50%

CNc1cc(Nc2cccn([C@H]3CC[C@H](OC)CC3)c2=O)nc2c(C(=O)N[C@H]3COC[C@H]3O)cnn12 [I-746]
inhibition at 10 µM [1]: < 50% | Kd [2]: 0.2 to 1 nM | inhibition at 10 µM [3]: < 50%

CNc1cc(Nc2cccc3ocnc23)nc2c(C(=O)NCC3(CO)CC3)cnn12 [I-749]
inhibition at 10 µM [1]: < 50% | Kd [2]: < 0.2 nM | inhibition at 10 µM [3]: < 50%

CNc1cc(Nc2cccn([C@@H]3CCCOC3)c2=O)nc2c(C(=O)N[C@@H]3CC[C@@H]3O)cnn12 [I-752]
inhibition at 10 µM [1]: < 50% | Kd [2]: 0.2 to 1 nM | inhibition at 10 µM [3]: < 50%

CNc1cc(Nc2cccn([C@H]3CCCOC3)c2=O)nc2c(C(=O)N[C@H]3COC[C@H]3O)cnn12 [I-753]
inhibition at 10 µM [1]: < 50% | Kd [2]: 0.2 to 1 nM | inhibition at 10 µM [3]: < 50%

CNc1cc(Nc2cccn([C@@H]3CCCOC3)c2=O)nc2c(C(=O)N[C@H]3COC[C@H]3O)cnn12 [I-754]
inhibition at 10 µM [1]: < 50% | Kd [2]: < 0.2 nM | inhibition at 10 µM [3]: < 50%

CNc1cc(Nc2cccc3ocnc23)nc2c(C(=O)N[C@H]3COC[C@H]3O)cnn12 [I-755]
inhibition at 10 µM [1]: < 50% | Kd [2]: < 0.2 nM | inhibition at 10 µM [3]: < 50%

CNc1cc(Nc2cccc(N3CC(O)C3)n2)nc2c(C(=O)N[C@@H]3C[C@@H]3F)cnn12 [I-757]
inhibition at 10 µM [1]: < 50% | Kd [2]: < 0.2 nM | inhibition at 10 µM [3]: < 50%

CNc1cc(Nc2cccc(N3CC4(CCO4)C3)n2)nc2c(C(=O)N[C@H]3CC[C@H]3O)cnn12 [I-758]
inhibition at 10 µM [1]: < 50% | Kd [2]: 0.2 to 1 nM | inhibition at 10 µM [3]: < 50%

CNc1cc(Nc2cccn([C@H]3CCC[C@H](O)C3)c2=O)nc2c(C(=O)NC3CC3)cnn12 [I-760]
inhibition at 10 µM [1]: < 50% | Kd [2]: < 0.2 nM | inhibition at 10 µM [3]: < 50%

CNc1cc(Nc2cccn(C3CCN(C)CC3(F)F)c2=O)nc2c(C(=O)NC3CC3)cnn12 (stereo not drawn) [I-761]
inhibition at 10 µM [1]: < 50% | Kd [2]: 0.2 to 1 nM | inhibition at 10 µM [3]: < 50%

CNc1cc(Nc2cccn(C3CC4(COC4)C3)c2=O)nc2c(C(=O)N[C@H]3CC[C@H]3O)cnn12 [I-763]
inhibition at 10 µM [1]: < 50% | Kd [2]: < 0.2 nM | inhibition at 10 µM [3]: < 50%

CNc1cc(Nc2cccn(-c3ccc(C)nc3)c2=O)nc2c(C(=O)NC3CC3)cnn12 [I-765, N-cyclopropyl-5-((6′-methyl-2-oxo-2H-[1,3′-bipyridin]-3-yl)amino)-7-(methylamino)pyrazolo[1,5-a]pyrimidine-3-carboxamide]
inhibition at 10 µM [1]: < 50% | Kd [2]: < 0.2 nM | inhibition at 10 µM [3]: < 50%

CNc1cc(Nc2cccn(-c3ccc(C)nc3)c2=O)nc2c(C(=O)N[C@@H]3C[C@@H]3F)cnn12 [I-766]
inhibition at 10 µM [1]: < 50% | Kd [2]: < 0.2 nM | inhibition at 10 µM [3]: < 50%

CNc1cc(Nc2cccn(-c3ccc(C)nc3)c2=O)nc2c(C(=O)NCC(C)(C)CO)cnn12 [I-767]
inhibition at 10 µM [1]: < 50% | Kd [2]: < 0.2 nM | inhibition at 10 µM [3]: < 50%

CNc1cc(Nc2cccn(-c3nc(C)co3)c2=O)nc2c(C(=O)N[C@@H]3CC[C@H]3O)cnn12 [I-768]
inhibition at 10 µM [1]: < 50% | Kd [2]: < 0.2 nM | inhibition at 10 µM [3]: < 50%

CNc1cc(Nc2cccc3ocnc23)nc2c(C(=O)N[C@H]3CC[C@H]3O)cnn12 [I-771]
inhibition at 10 µM [1]: < 50% | Kd [2]: 0.2 to 1 nM | inhibition at 10 µM [3]: < 50%

CNc1cc(Nc2cccc([C@H]3CCCOC3)n2)nc2c(C(=O)N[C@H]3COC[C@H]3O)cnn12 [I-774]
Tyk2 JH1% Inhibition @ 10 μM [1]: A (percent inhibition at 10 μM lower than 50) | Kd [2]: 1 to 10 nM | JAK2 JH1% Inhibition @ 10 μM [3]: A (percent inhibition at 10 μM lower than 50)

CNc1cc(Nc2cccc([C@H]3CCCOC3)n2)nc2c(C(=O)N[C@@H]3COC[C@@H]3O)cnn12 [I-775]
Tyk2 JH1% Inhibition @ 10 μM [1]: A (percent inhibition at 10 μM lower than 50) | Kd [2]: < 0.2 nM | JAK2 JH1% Inhibition @ 10 μM [3]: A (percent inhibition at 10 μM lower than 50)

CNc1cc(-c2cn(CCN3CCOCC3)c3ncccc23)nc2c(C(=O)N[C@H]3CC[C@H]3O)cnn12 [I-778]
inhibition at 10 µM [1]: < 50% | Kd [2]: < 0.2 nM | inhibition at 10 µM [3]: < 50%

CNc1cc(-c2cn(CCN3CCOCC3)c3ncccc23)nc2c(C(=O)N[C@@H]3CC[C@@H]3O)cnn12 [I-779]
Tyk2 JH1% Inhibition @ 10 μM [1]: A (percent inhibition at 10 μM lower than 50) | Kd [2]: 0.2 to 1 nM | JAK2 JH1% Inhibition @ 10 μM [3]: A (percent inhibition at 10 μM lower than 50)

CNc1cc(Nc2cccn([C@@H]3CCCOC3)c2=O)nc2c(C(=O)N[C@H]3CCC[C@H](O)C3)cnn12 [I-781]
Tyk2 JH1% Inhibition @ 10 μM [1]: A (percent inhibition at 10 μM lower than 50) | Kd [2]: < 0.2 nM | JAK2 JH1% Inhibition @ 10 μM [3]: A (percent inhibition at 10 μM lower than 50)

CNc1cc(Nc2cccn([C@H]3CCCOC3)c2=O)nc2c(C(=O)N[C@H]3COC[C@H]3O)cnn12 [I-784]
Tyk2 JH1% Inhibition @ 10 μM [1]: A (percent inhibition at 10 μM lower than 50) | Kd [2]: > 10 nM | JAK2 JH1% Inhibition @ 10 μM [3]: A (percent inhibition at 10 μM lower than 50)

CNc1cc(Nc2cccn([C@H]3CCCOC3)c2=O)nc2c(C(=O)N[C@@H]3COC[C@@H]3O)cnn12 [I-785]
inhibition at 10 µM [1]: < 50% | Kd [2]: < 0.2 nM | inhibition at 10 µM [3]: < 50%

CNc1cc(Nc2cccn([C@@H]3CCCOC3)c2=O)nc2c(C(=O)N[C@@H]3COC[C@@H]3O)cnn12 [I-787]
inhibition at 10 µM [1]: < 50% | Kd [2]: > 10 nM | inhibition at 10 µM [3]: < 50%

CNc1cc(Nc2cccn([C@@H]3C[C@H]3F)c2=O)nc2c(C(=O)NC3CC3)cnn12 [I-788]
inhibition at 10 µM [1]: < 50% | Kd [2]: < 0.2 nM | inhibition at 10 µM [3]: < 50%
